Experimental data taken from patent publication US8993542B2, “Methods of treating viral infections” (priority 2008, dated 2015).
pIC50: −log10 of the molar value. Read-outs that look alike come from different tables or passages of the source.

Assays:
HIV-1 Subtype Isolates = assay: Activity against HIV-1 subtype isolates in PBMCs, RT endpoint; conditions: for pIC50: Human immunodeficiency virus 1, PBMC
PBMCs = assay: Cytotoxicity (TC50) in PBMCs; assay type: cell-based
[1] = Cytotoxicity (TC50) in PBMCs; assay type: cell-based; conditions: PBMCs
HIV-2 Isolates = assay: Activity against HIV-2 isolates in PBMCs, RT endpoint; assay type: cell-based; conditions: for pIC50: Human immunodeficiency virus 2, PBMC

CCCCCCCCCCCCCCCCOCCCOP(=O)(O)CO[C@H](C)Cn1cnc2c(N)ncnc21 [CMX157, Hexadecyloxypropyl-9-R-[2-(Phosphonomethoxy)Propyl]-Adenine]
pIC50 (HIV-1 Subtype Isolates; read-out: IC50s against all major HIV subtypes, subtypes A-G, O and HIV-2, Tables 2 and 3): 8.14 to 9.70 | pIC50 (HIV-1 Subtype Isolates; read-out: RT Endpoint IC50, isolate 96USHIPS7, subtype B): 8.32 | pIC50 (HIV-1 Subtype Isolates; read-out: RT Endpoint IC50, isolate ADA, subtype B): 8.97 | pIC50 (HIV-1 Subtype Isolates; read-out: RT Endpoint IC50, isolate BCF01, subtype O): 8.14 | pIC50 (HIV-1 Subtype Isolates; read-out: RT Endpoint IC50, isolate BCF02, subtype O): 8.61 | pIC50 (HIV-1 Subtype Isolates; read-out: RT Endpoint IC50, isolate BCF03, subtype O): 8.28 | pIC50 (HIV-1 Subtype Isolates; read-out: RT Endpoint IC50, isolate BR/92/014, subtype B): 8.80 | pIC50 (HIV-1 Subtype Isolates; read-out: RT Endpoint IC50, isolate BR/92/025, subtype C): 8.46 | pIC50 (HIV-1 Subtype Isolates; read-out: RT Endpoint IC50, isolate BR/93/019, subtype F): 8.19 | pIC50 (HIV-1 Subtype Isolates; read-out: RT Endpoint IC50, isolate BR/93/020, subtype F): 9.14 | pIC50 (HIV-1 Subtype Isolates; read-out: RT Endpoint IC50, isolate BR/93/029, subtype F): 8.99 | pIC50 (HIV-1 Subtype Isolates; read-out: RT Endpoint IC50, isolate CMU06, subtype E): 8.99 | pIC50 (HIV-1 Subtype Isolates; read-out: RT Endpoint IC50, isolate CMU08, subtype E): 8.55 | pIC50 (HIV-1 Subtype Isolates; read-out: RT Endpoint IC50, isolate G3, subtype G): 8.57 | pIC50 (HIV-1 Subtype Isolates; read-out: RT Endpoint IC50, isolate IN/93/101, subtype C): 9.28 | pIC50 (HIV-1 Subtype Isolates; read-out: RT Endpoint IC50, isolate JR-CSF, subtype B): 9.17 | pIC50 (HIV-1 Subtype Isolates; read-out: RT Endpoint IC50, isolate JV1083, subtype G): 8.63 | pIC50 (HIV-1 Subtype Isolates; read-out: RT Endpoint IC50, isolate MW/93/959, subtype C): 8.35 | pIC50 (HIV-1 Subtype Isolates; read-out: RT Endpoint IC50, isolate RU132, subtype G): 8.79 | pIC50 (HIV-1 Subtype Isolates; read-out: RT Endpoint IC50, isolate RW/92/009, subtype A): 8.76 | pIC50 (HIV-1 Subtype Isolates; read-out: RT Endpoint IC50, isolate TH/92/026, subtype B): 9.36 | pIC50 (HIV-1 Subtype Isolates; read-out: RT Endpoint IC50, isolate TH/93/073, subtype E): 8.53 | pIC50 (HIV-1 Subtype Isolates; read-out: RT Endpoint IC50, isolate UG/92/001, subtype D): 8.29 | pIC50 (HIV-1 Subtype Isolates; read-out: RT Endpoint IC50, isolate UG/92/024, subtype D): 9.52 | pIC50 (HIV-1 Subtype Isolates; read-out: RT Endpoint IC50, isolate UG/92/029, subtype A): 8.23 | pIC50 (HIV-1 Subtype Isolates; read-out: RT Endpoint IC50, isolate UG/92/037, subtype A): 8.64 | pIC50 (HIV-1 Subtype Isolates; read-out: RT Endpoint IC50, isolate UG/92/046, subtype D): 9.02 | TI (TC50/IC50) (HIV-1 Subtype Isolates; isolate 96USHIPS7, subtype B): >208 | TI (TC50/IC50) (HIV-1 Subtype Isolates; isolate ADA, subtype B): >925 | TI (TC50/IC50) (HIV-1 Subtype Isolates; isolate BCF01, subtype O): >139 | TI (TC50/IC50) (HIV-1 Subtype Isolates; isolate BCF02, subtype O): >405 | TI (TC50/IC50) (HIV-1 Subtype Isolates; isolate BCF03, subtype O): >189 | TI (TC50/IC50) (HIV-1 Subtype Isolates; isolate BR/92/014, subtype B): >633 | TI (TC50/IC50) (HIV-1 Subtype Isolates; isolate BR/92/025, subtype C): >291 | TI (TC50/IC50) (HIV-1 Subtype Isolates; isolate BR/93/019, subtype F): >156 | TI (TC50/IC50) (HIV-1 Subtype Isolates; isolate BR/93/020, subtype F): >1,362 | TI (TC50/IC50) (HIV-1 Subtype Isolates; isolate BR/93/029, subtype F): >972 | TI (TC50/IC50) (HIV-1 Subtype Isolates; isolate CMU06, subtype E): >970 | TI (TC50/IC50) (HIV-1 Subtype Isolates; isolate CMU08, subtype E): >356 | TI (TC50/IC50) (HIV-1 Subtype Isolates; isolate G3, subtype G): >373 | TI (TC50/IC50) (HIV-1 Subtype Isolates; isolate IN/93/101, subtype C): >1,892 | TI (TC50/IC50) (HIV-1 Subtype Isolates; isolate JR-CSF, subtype B): >1,480 | TI (TC50/IC50) (HIV-1 Subtype Isolates; isolate JV1083, subtype G): >431 | TI (TC50/IC50) (HIV-1 Subtype Isolates; isolate MW/93/959, subtype C): >222 | TI (TC50/IC50) (HIV-1 Subtype Isolates; isolate RU132, subtype G): >615 | TI (TC50/IC50) (HIV-1 Subtype Isolates; isolate RW/92/009, subtype A): >571 | TI (TC50/IC50) (HIV-1 Subtype Isolates; isolate TH/92/026, subtype B): >2,278 | TI (TC50/IC50) (HIV-1 Subtype Isolates; isolate TH/93/073, subtype E): >339 | TI (TC50/IC50) (HIV-1 Subtype Isolates; isolate UG/92/001, subtype D): >194 | TI (TC50/IC50) (HIV-1 Subtype Isolates; isolate UG/92/024, subtype D): >3,346 | TI (TC50/IC50) (HIV-1 Subtype Isolates; isolate UG/92/029, subtype A): >171 | TI (TC50/IC50) (HIV-1 Subtype Isolates; isolate UG/92/037, subtype A): >435 | TI (TC50/IC50) (HIV-1 Subtype Isolates; isolate UG/92/046, subtype D): >1,039 | CC50 (PBMCs; HIV-2 isolate CBL-20): > 1000 nM | CC50 (PBMCs; HIV-2 isolate CDC310342): > 1000 nM | CC50 (PBMCs; isolate 96USHIPS7, subtype B, read-out: TC 50 (the source's name)): > 1000 nM | CC50 (PBMCs; isolate BCF01, subtype O, read-out: TC 50 (the source's name)): > 1000 nM | CC50 (PBMCs; isolate BCF02, subtype O, read-out: TC 50 (the source's name)): > 1000 nM | CC50 (PBMCs; isolate BCF03, subtype O, read-out: TC 50 (the source's name)): > 1000 nM | CC50 (PBMCs; isolate BR/92/014, subtype B, read-out: TC 50 (the source's name)): > 1000 nM | CC50 (PBMCs; isolate BR/92/025, subtype C, read-out: TC 50 (the source's name)): > 1000 nM | CC50 (PBMCs; isolate BR/93/019, subtype F, read-out: TC 50 (the source's name)): > 1000 nM | CC50 (PBMCs; isolate BR/93/020, subtype F, read-out: TC 50 (the source's name)): > 1000 nM | CC50 (PBMCs; isolate BR/93/029, subtype F, read-out: TC 50 (the source's name)): > 1000 nM | CC50 (PBMCs; isolate CMU06, subtype E, read-out: TC 50 (the source's name)): > 1000 nM | CC50 (PBMCs; isolate CMU08, subtype E, read-out: TC 50 (the source's name)): > 1000 nM | CC50 (PBMCs; isolate G3, subtype G, read-out: TC 50 (the source's name)): > 1000 nM | CC50 (PBMCs; isolate IN/93/101, subtype C, read-out: TC 50 (the source's name)): > 1000 nM | CC50 (PBMCs; isolate JR-CSF, subtype B, read-out: TC 50 (the source's name)): > 1000 nM | CC50 (PBMCs; isolate JV1083, subtype G, read-out: TC 50 (the source's name)): > 1000 nM | CC50 (PBMCs; isolate MW/93/959, subtype C, read-out: TC 50 (the source's name)): > 1000 nM | CC50 (PBMCs; isolate RU132, subtype G, read-out: TC 50 (the source's name)): > 1000 nM | CC50 (PBMCs; isolate RW/92/009, subtype A, read-out: TC 50 (the source's name)): > 1000 nM | CC50 (PBMCs; isolate TH/92/026, subtype B, read-out: TC 50 (the source's name)): > 1000 nM | CC50 (PBMCs; isolate TH/93/073, subtype E, read-out: TC 50 (the source's name)): > 1000 nM | CC50 (PBMCs; isolate UG/92/001, subtype D, read-out: TC 50 (the source's name)): > 1000 nM | CC50 (PBMCs; isolate UG/92/024, subtype D, read-out: TC 50 (the source's name)): > 1000 nM | CC50 (PBMCs; isolate UG/92/029, subtype A, read-out: TC 50 (the source's name)): > 1000 nM | CC50 (PBMCs; isolate UG/92/037, subtype A, read-out: TC 50 (the source's name)): > 1000 nM | CC50 (PBMCs; isolate UG/92/046, subtype D, read-out: TC 50 (the source's name)): > 1000 nM | CC50 ([1]; HIV-2 isolate CDC310319): > 1000 nM | CC50 ([1]; human, isolate ADA, subtype B, read-out: TC 50 (the source's name)): > 1000 nM | TI (TC50/IC50) (HIV-2 Isolates; HIV-2 isolate CBL-20): >223 | TI (TC50/IC50) (HIV-2 Isolates; HIV-2 isolate CDC310319): >564 | TI (TC50/IC50) (HIV-2 Isolates; HIV-2 isolate CDC310342): >232 | pIC50 (HIV-2 Isolates; HIV-2 isolate CBL-20): 8.35 | pIC50 (HIV-2 Isolates; HIV-2 isolate CDC310319): 8.75 | pIC50 (HIV-2 Isolates; HIV-2 isolate CDC310342): 8.37
